# Measured values taken from patent US11311561B2, “Composition and method for treating, relieving or preventing neuropathic pain, containing choline alfoscerate as active ingredient” (NANOSTEM CO., LTD., priority 2017, dated 2022).
# Several values for one entry are separate records, joined by “and”; a condition that tells them apart may be missing. Equal values may be shown once.
# Experiments:
# [1] = test system: patients with neuropathic pain; assay: Clinical trial: pain intensity by 11-point pain intensity numerical rating scale (PI-NRS) over 12 weeks; type: in vivo, human
# Text: Patients with neuropathic pain were selected as subjects. The patients were asked to report the characteristics of neuropathic pain (type of neuropathic pain, site of occurrence, time of occurrence and frequency of occurrence), causative factors of pain, presence of diseases and relationship with pain, relationship between pain and drug medication, medication of therapeutic agents for pain, etc.
# The characteristics of “nerve block treatment group (control group)” patients are described in Table 1, the characteristics of “choline alfoscerate intravenous administration group (Example 1)” patients are described in Table 2 and the characteristics of “choline alfoscerate oral administration group (Example 2)” patients are described in Table 3.
# (§1) The “nerve block treatment group (control group)” patients were injected with 5 mL of 0.5% lidocaine at the sites of pain (4-5 points), once a week.
# (§2) The “choline alfoscerate intravenous administration group (Example 1)” patients were intravenously injected slowly with choline alfoscerate (1 g/4 mL) mixed in 100 mL of physiological saline, twice a week.
# (§3) The “choline alfoscerate oral administration group (Example 2)” patients were […] with choline alfoscerate (400 mg/capsule), 3 times a day.
# Pain intensity was measured for 12 weeks. The pain intensity was evaluated according to the 11-point pain intensity numerical rating scale (PI-NRS), where 0=no pain, weakest pain=1 and most severe pain=10. 2-point reduction in the pain intensity was considered clinically significant as reported (Farrar 2001, Rowbotham 2001, Hawker 2011). The pain intensity was measured on the first visit (T0) and was compared with the pain intensity 2 weeks (T1), 4 weeks (T2), 6 weeks (T3), 8 weeks (T4), 10 weeks (T5) and 12 weeks (T6) after the first drug administration.
# Statistical analysis was conducted using the SASS package ver. 23 and significance was tested by the paired t-test.
# [2] = Clinical trial: side effects after the treatment; type: in vivo, human; settings: Example 1: iv 1 g twice a week; Example 2: oral 400 mg 3 times a day; patients
# Experimental: as §1, §2, §3
# Because choline alfoscerate has no effect on the kidney and liver, it is thought that it can be used for people with kidney or liver problems as a therapeutic agent for neuropathic pain.
# [3] = test system: spared nerve injury (SNI) rat model; assay: Von Frey filament test (50% up and down threshold) for mechanical allodynia; type: in vivo, Sprague-Dawley (SD) male rats; settings: for Mechanical threshold (von Frey), Before: 4 weeks after surgery, before drug treatment; for Effect on mechanical allodynia (in words): pregabalin 30 mg/kg or choline alfoscerate 325 mg/kg ip once a day for one week
# Text: The spared nerve injury (SNI) rat model was used as an efficient neuropathic pain model and von Freytest was used for assessing mechanical threshold. The SNI model, one of the peripheral nerve injury models that made from the 3 nerve branches (sciatic nerve), the one was spared, and the other 2 nerves (tibial, common peroneal nerve) were axotomized. Within 4 days of injury, mechanical and thermal hyperalgesia occurs, lasting weeks to up to 6 months.
# Sprague-Dawley (SD) male rats (Koatech, South Korea) weighing 100-150 g, were used to generate neuropathic pain rat models. The rats were maintained under specifically controlled conditions (ambient temperature 23±2° C., 12-h light/dark cycle). Food pellets (DBL, Chungbuk, South Korea) and water were supplied ad libitum. All procedures complied with Institutional Animal Care and Use Committee of Dankook University (IACUC, South Korea), which adheres to the guidelines issued by the Institution of Laboratory of Animal Resources.
# After surgery, rats were divided into three groups: (1) control (0.9% normal saline), (2) pregabalin (30 mg/kg), (3) choline alfoscerate (325 mg/kg).
# Four weeks later after surgery, Drugs were injected intraperitoneally once a day for one week.
# To generate an efficient neuropathic pain model, the rats were anesthetized under 3% isoflurane (Hana Pharm., South Korea), the left calf of the rat leg was incised and the common peroneal and the tibial nerve of three peripheral nerve branches in the sciatic nerve were axotomized and the sural nerve was spared then the surgical site was closed. After the surgery, animals were placed in the home cage to recover. 2 weeks after surgery, hypersensitivity will occur in the lateral area of the rat left hind paw.
# 4 weeks later after surgery, we applied von Frey filament test established by 50% up and down threshold method for evaluate mechanical allodynia in SNI model we made (Chaplan et al. 1994). The pain measurement was carried out by three people in order to objectify the results. Rats were habituated 5 minutes in the apparatus. […] We stimulated 5 times in the ventral aspect of rat left paw using each filament from thick to thin. If the rat response to stimulate over 3 times, we considered that the rat has NP. The pain response was determined by the behaviors of the rats suddenly took off their foot and shrank or licked their foot with their tongues. The behavioural patterns of the pain were recorded to calculate the threshold value of the pain.
# 4 weeks after surgery, when the mechanical stimuli were applied to the left paw of rats using von Frey monofilaments, thresholds were calculated by looking at the behavioral patterns. Through this test, the behavioral patterns that appeared when mechanical stimuli were applied to the neuropathic pain model and expressed as threshold which was a […] assessment of the pain scoring.
structure (smiles),measurement,setting,value
"CCN(CC)CC(=O)Nc1c(C)cccc1C [Control group, lidocaine]",Pain intensity (PI-NRS),"[1]; T0, first visit before drug administration, nerve block group, 5 mL of 0.5% lidocaine at sites of pain once a week, n=38",7.00 ± 0.52 points
same,Pain intensity (PI-NRS),"[1]; T0, first visit before drug administration, nerve block group, 5 mL of 0.5% lidocaine at sites of pain once a week, n=38, listed as control group",7.00 points
same,Decrease in pain intensity (PI-NRS) from T0,"[1]; T0 to T1 (2 weeks), nerve block 0.5% lidocaine once a week",1.61 points
same,Decrease in pain intensity (PI-NRS) from T0,"[1]; T0 to T6 (12 weeks), nerve block 0.5% lidocaine once a week",4.76 points
same,Pain intensity (PI-NRS),"[1]; T1, 2 weeks after first administration, nerve block 0.5% lidocaine once a week",5.39 ± 0.89 points
same,Pain intensity (PI-NRS),"[1]; T1, 2 weeks after first administration, nerve block 0.5% lidocaine once a week, listed as control group",5.39 points
same,Pain intensity (PI-NRS),"[1]; T2, 4 weeks, nerve block 0.5% lidocaine once a week",4.66 ± 0.85 points
same,Pain intensity (PI-NRS),"[1]; T3, 6 weeks, nerve block 0.5% lidocaine once a week",3.63 ± 0.79 points
same,Pain intensity (PI-NRS),"[1]; T4, 8 weeks, nerve block 0.5% lidocaine once a week",2.87 ± 0.81 points
same,Pain intensity (PI-NRS),"[1]; T5, 10 weeks, nerve block 0.5% lidocaine once a week",2.37 ± 0.79 points
same,Pain intensity (PI-NRS),"[1]; T6, 12 weeks, nerve block 0.5% lidocaine once a week",2.24 ± 0.91 points
same,Pain intensity (PI-NRS),"[1]; T6, 12 weeks, nerve block 0.5% lidocaine once a week, listed as control group",2.24 points
"C[N+](C)(C)CCOP(=O)([O-])OC[C@H](O)CO [Choline alfoscerate, choline alfoscerate]",Side effect after the treatment,[2],no side effect
same,"Mechanical threshold (von Frey), Before",[3]; choline alfoscerate group,2.59 ± 0.87 g
same,"Mechanical threshold (von Frey), After",[3]; after choline alfoscerate 325 mg/kg intraperitoneally once a day for one week,7.68 ± 4.48 g
same,Effect on mechanical allodynia (in words),[3],significantly suppressed mechanical allodynia
same,Change in pain intensity of neuropathic pain (in words),"[1]; Example 1: iv 1 g twice a week, Example 2: oral 400 mg 3 times a day, 12 weeks",significant decrease in the pain intensity
same,Time after drug administration at which some patients reported decreased neuropathic pain,"[1]; Example 1: iv, Example 2: oral, some patients",the next day
same,Pain intensity (PI-NRS),"[1]; T0, first visit before drug administration, choline alfoscerate iv group, 1 g/4 mL in 100 mL saline twice a week, n=59, listed as Example 1",6.64 points and 6.64 ± 1.03 points
same,Pain intensity (PI-NRS),"[1]; T0, first visit before drug administration, choline alfoscerate oral group, 400 mg/capsule 3 times a day, n=54, listed as Example 2",6.61 points and 6.61 ± 0.83 points
same,Decrease in pain intensity (PI-NRS) from T0,"[1]; T0 to T6 (12 weeks), choline alfoscerate iv 1 g twice a week",4.18 points
same,Decrease in pain intensity (PI-NRS) from T0,"[1]; T0 to T6 (12 weeks), choline alfoscerate oral 400 mg 3 times a day",4.48 points
same,Pain intensity (PI-NRS),"[1]; T1, 2 weeks after first administration, choline alfoscerate iv 1 g twice a week, listed as Example 1",5.19 points and 5.19 ± 1.59 points
same,Pain intensity (PI-NRS),"[1]; T1, 2 weeks after first administration, choline alfoscerate oral 400 mg 3 times a day, listed as Example 2",5.41 points and 5.41 ± 1.16 points
same,Pain intensity (PI-NRS),"[1]; T2, 4 weeks, choline alfoscerate iv 1 g twice a week",4.56 ± 1.50 points
same,Pain intensity (PI-NRS),"[1]; T2, 4 weeks, choline alfoscerate oral 400 mg 3 times a day",4.52 ± 1.42 points
same,Pain intensity (PI-NRS),"[1]; T3, 6 weeks, choline alfoscerate iv 1 g twice a week",3.92 ± 1.42 points
same,Pain intensity (PI-NRS),"[1]; T3, 6 weeks, choline alfoscerate oral 400 mg 3 times a day",3.63 ± 1.45 points
same,Pain intensity (PI-NRS),"[1]; T4, 8 weeks, choline alfoscerate iv 1 g twice a week",3.34 ± 1.21 points
same,Pain intensity (PI-NRS),"[1]; T4, 8 weeks, choline alfoscerate oral 400 mg 3 times a day",3.00 ± 1.23 points
same,Pain intensity (PI-NRS),"[1]; T5, 10 weeks, choline alfoscerate iv 1 g twice a week",2.85 ± 1.10 points
same,Pain intensity (PI-NRS),"[1]; T5, 10 weeks, choline alfoscerate oral 400 mg 3 times a day",2.59 ± 1.13 points
same,Pain intensity (PI-NRS),"[1]; T6, 12 weeks, choline alfoscerate iv 1 g twice a week, listed as Example 1",2.46 points and 2.46 ± 0.99 points
same,Pain intensity (PI-NRS),"[1]; T6, 12 weeks, choline alfoscerate oral 400 mg 3 times a day, listed as Example 2",2.13 points and 2.13 ± 0.99 points
"CC(C)C[C@H](CN)CC(=O)O [Pregabalin, pregabalin]","Mechanical threshold (von Frey), Before",[3]; pregabalin group,2.42 ± 0.81 g
same,"Mechanical threshold (von Frey), After",[3]; after pregabalin 30 mg/kg intraperitoneally once a day for one week,9.91 ± 4.12 g
same,Effect on mechanical allodynia (in words),[3],significantly suppressed mechanical allodynia
